Experiment: refractive index (other wavelength) (dimensionless); xn = mol fraction of the nth substance listed
Settings: 95.99 kPa, Liquid, Standard Abbe refractometry

OCCOCCOCCO [triethylene glycol] + O
refractive index
Settings	Wavelength=404.7 nm	Wavelength=435.8 nm	Wavelength=486.1 nm	Wavelength=546.1 nm	Wavelength=587.6 nm	Wavelength=589.3 nm	Wavelength=632.8 nm	Wavelength=644 nm	Wavelength=706.5 nm
308.15 K, x2 = 0	–	–	–	–	–	–	–	1.44909	1.44737
308.15 K, x2 = 0.1056	–	–	–	–	–	–	–	1.44778	1.44608
308.15 K, x2 = 0.2069	–	–	–	–	–	–	–	1.44621	1.4451
308.15 K, x2 = 0.3104	–	–	–	–	–	–	–	1.44392	1.44202
308.15 K, x2 = 0.4844	–	–	–	–	–	–	–	1.43913	1.43745
308.15 K, x2 = 0.5016	–	–	–	–	–	–	–	1.43819	1.43653
308.15 K, x2 = 0.5952	–	–	–	–	–	–	–	1.43167	1.42998
308.15 K, x2 = 0.6016	–	–	–	–	–	–	–	1.43191	1.43023
308.15 K, x2 = 0.6788	–	–	–	–	–	–	–	1.42543	1.42374
308.15 K, x2 = 0.7835	–	–	–	–	–	–	–	1.41701	1.41536
308.15 K, x2 = 0.8184	–	–	–	–	–	–	–	1.41118	1.40951
308.15 K, x2 = 0.8473	–	–	–	–	–	–	–	1.4049	1.40326
308.15 K, x2 = 0.8719	–	–	–	–	–	–	–	1.39819	1.39653
308.15 K, x2 = 0.8926	–	–	–	–	–	–	–	1.39069	1.38904
308.15 K, x2 = 0.9106	–	–	–	–	–	–	–	1.38534	1.38371
308.15 K, x2 = 0.9254	–	–	–	–	–	–	–	1.37569	1.37409
308.15 K, x2 = 0.9303	–	–	–	–	–	–	–	1.37659	1.37498
308.15 K, x2 = 0.9391	–	–	–	–	–	–	1.37329	1.37297	1.37137
308.15 K, x2 = 0.951	–	–	–	–	–	–	1.36686	1.36654	1.36496
308.15 K, x2 = 0.9599	–	–	–	–	–	–	1.36065	1.36033	1.35875
308.15 K, x2 = 0.9708	–	–	–	–	–	–	1.35307	1.35275	1.35119
308.15 K, x2 = 0.979	–	–	–	–	–	–	1.34835	1.34803	1.34647
308.15 K, x2 = 0.9867	–	–	–	–	–	–	1.34205	1.34175	1.34023
308.15 K, x2 = 0.9936	–	–	–	–	–	–	1.33605	1.33576	1.33425
313.15 K, x2 = 0	1.46216	1.45863	1.45448	1.45106	1.44927	1.4492	1.44766	1.44731	1.44561
313.15 K, x2 = 0.1056	1.46096	1.45744	1.4533	1.4499	1.44812	1.44806	1.44652	1.44616	1.44445
313.15 K, x2 = 0.2069	1.45931	1.45583	1.45169	1.44831	1.44653	1.44647	1.44494	1.44459	1.44288
313.15 K, x2 = 0.3104	1.45682	1.45335	1.44921	1.44581	1.44397	1.44244	1.44209	1.44136	1.4404
313.15 K, x2 = 0.4844	1.45391	1.45049	1.44639	1.44305	1.44124	1.44046	1.43954	1.43899	1.43766
313.15 K, x2 = 0.5016	1.45102	1.44762	1.44358	1.44028	1.43853	1.43847	1.43695	1.43661	1.43492
313.15 K, x2 = 0.5952	1.44431	1.44094	1.43703	1.43376	1.43204	1.43197	1.43049	1.43015	1.42848
313.15 K, x2 = 0.6016	1.44384	1.44387	1.43615	1.43304	1.43132	1.43126	1.43021	1.42952	1.42809
313.15 K, x2 = 0.6788	1.43802	1.43469	1.43086	1.42768	1.42601	1.42559	1.42446	1.42411	1.42243
313.15 K, x2 = 0.7835	1.42903	1.42572	1.42205	1.41893	1.41728	1.41722	1.41578	1.41543	1.41372
313.15 K, x2 = 0.8184	1.42287	1.41965	1.41597	1.41287	1.41125	1.41119	1.40976	1.40942	1.40776
313.15 K, x2 = 0.8473	1.4172	1.41405	1.41039	1.40736	1.40575	1.40569	1.40427	1.40394	1.40231
313.15 K, x2 = 0.8719	1.41026	1.40715	1.40359	1.40061	1.39902	1.39896	1.39756	1.39723	1.39559
313.15 K, x2 = 0.8926	1.40276	1.39972	1.39624	1.39332	1.39177	1.39171	1.39035	1.39002	1.3884
313.15 K, x2 = 0.9106	1.39726	–	1.39088	1.38799	1.38648	1.38642	1.38508	1.38475	1.38313
313.15 K, x2 = 0.9254	1.38778	1.38484	1.38148	1.37865	1.37712	1.37706	1.37569	1.37537	1.37376
313.15 K, x2 = 0.9303	1.38834	1.38538	1.38203	1.3792	1.37769	1.37763	1.37629	1.37596	1.37435
313.15 K, x2 = 0.9391	1.38513	1.38218	1.37884	1.37598	1.37445	1.3744	1.37305	1.37272	1.37112
313.15 K, x2 = 0.951	1.37841	1.37555	1.37228	1.36949	1.36803	1.36794	1.36662	1.3663	1.36471
313.15 K, x2 = 0.9599	1.37093	1.36813	1.36494	1.36219	1.36072	1.36066	1.35936	1.35904	1.35747
313.15 K, x2 = 0.9708	1.36388	1.36116	1.35801	1.35533	1.35388	1.35383	1.35253	1.35221	1.35066
313.15 K, x2 = 0.979	1.35918	1.3565	1.35339	1.35071	1.34929	1.34923	1.34796	1.34764	1.3461
313.15 K, x2 = 0.9867	1.35221	1.34957	1.34651	1.34386	1.34243	1.34238	1.34111	1.34081	1.33932
313.15 K, x2 = 0.9936	1.34633	1.34376	1.34073	1.33811	1.3367	1.33665	1.3354	1.3351	1.33361

Reference: the NIST ThermoML archive (doi:10.1016/j.fluid.2015.07.030)
